Measurements as given in patent US20190359645A1, “2'3'-CYCLIC DINUCLEOTIDES COMPRISING CARBOCYCLIC NUCLEOTIDE” (Institute of Organic Chemistry and Biochemistry ASCR, V.V.I., priority 2018, published 2019).

target: WT STING (Homo sapiens, UniProt Q86WV6, H232R); assay: Differential scanning fluorimetry (DSF) with WT STING; format: binding; parameters: truncated human WT STING or AQ STING (amino acid residues 140-343); 8xHis (N, cleaved yes); SUMO (N, cleaved yes); made in house; host or cells: E. coli Rosetta-gami B (DE3); details: thermal shift, truncated human WT STING 0.1 mg/ml, 150 μM CDN
Source text: Both WT and AQ human STING (G230A-R^293Q) cDNA were amplified by the use of PCR (Phusion® High-Fidelity DNA Polymerase, cat. # M0530S, NEB, Ipswich, USA) using oligonucleotides hSTING140-BamH-For ([…]) (SEQ ID NO:5) and hSTING379-Not-Rev3 ([…]) (SEQ ID NO:6) from pUNOI-hSTING-WT (cat. # punol-hstingwt, InvivoGen, San Diego, USA) and pUNO1-hSTING-HAQ plasmids (punol-hsting-haq, InvivoGen, San Diego, USA). Purified PCR products were cleaved with restriction enzymes BamHI (cat. # R^0136S, NEB, Ipswich, USA) and NotI (cat. # R^0189S, NEB, Ipswich, USA) and cloned into the pSUMO vector linearized with the identical enzymes. Plasmid pSUMO was created by introducing 8-His-SUMO sequence between NdeI and BamHI sites of pHis-parallel2 plasmid (Clontech, Moutain View, USA). pSUMO-STING WT or pSUMO-STING AQ plasmids thus encoded truncated human WT STING or AQ STING (amino acid residues 140-343) with N-terminal 8×His and SUMO tag.
The recombinant WT STING and AQ STING proteins were overexpressed in Rosetta-gami B (DE3) competent cells (cat. #71136-3, Merck Millipore, Billerica, USA). Bacterial pellets were re-suspended in ice-cold lysis buffer containing 50 mmol·l^−1 TrisCl (cat. # T1503, Sigma Aldrich, Czech Republic) pH 8.0, 300 mmol·l^−1 NaCl, 3 mmol·l^−1 (3-mercaptoethanol (cat. # M6250, Sigma Aldrich, Czech Republic), 10% glycerol (cat. #G5516, Sigma Aldrich, Czech Republic) and 20 mmol·l^−1 imidazole (cat. #15513, Sigma Aldrich, Czech Republic) using Dounce homogenizer. DNase I (cat. # D5025, Sigma Aldrich, Czech Republic) and RNase A (cat. # R^6513, Sigma Aldrich, Czech Republic) were added (final concentration 50 μg/ml) together with MgCl2 (final concentration 5 mmol·l^−1) to the homogenate and bacteria were lysed using French Press G-M™ High-Pressure Cell Press Homogenizer (1500 psi, 3 cycles). Lysate was spun 30,000 g for 20 minutes and supernatant was gently stirred with Ni-NTA resin (cat. #745400.25 Macherey-Nagel, Duren, Germany) for 30 minutes. The resin was poured into a chromatography column, washed with 50 ml buffer A (50 mmol·l^−1 TrisCl (pH 8.0), 800 mmol·l^−1 NaCl, 3 mmol·l^−1β-mercaptoethanol; 10% glycerol; 20 mmol·l^−1 imidazole) and 8-His-SUMO tagged STING proteins were eluted with 15 ml buffer A containing 300 mmol·l^−1 imidazole. The eluted proteins were cleaved with recombinant SUMO protease (80 pig/ml of protein solution, cat. #12588018, ThermoFisher, Waltham, USA). The proteins were further purified by size exclusion chromatography using HiLoad 16/60 Superdex 75 (cat. #28989333, GE Healthcare Bio-Sciences, Pittsburgh, USA) in 50 mmol·l^−1 Tris C1 buffer pH 7.4 containing 150 mmol·l^−1 NaCl, and 10% glycerol. Proteins were concentrated with Amicon® Ultra-15 10 K device (cat. # UFC901008, Merck Millipore, Billerica, USA) and flash frozen in liquid N2.
WT and AQ allelic forms of STING protein were diluted to the final concentration 0.1 mg/ml in 100 mmol·l^−1 TrisCl buffer pH 7.4 containing, 150 mmol·l^−1 NaCl, 1:500 SYPRO Orange (cat. # S6650, ThermoFisher, Waltham, USA) and 150 μM CDN or water. 20 μL solutions of the reaction mixtures were pipetted in triplicates into 96 well optical reaction plates and thermal denaturation of samples were performed on real time PCR cycler (LightCycler® 480 Instrument II—Roche, Basel, Switzerland). The first derivative of the thermal denaturation curves was performed to calculate denaturing temperatures of STING-CDN complexes and STING apoproteins. The thermal shift for each CDN was calculated by subtracting the average denaturing temperature of STING apoprotein from the average denaturing temperature of STING CDN complex.

Chain of WT STING (Q86WV6 140-343 H232R): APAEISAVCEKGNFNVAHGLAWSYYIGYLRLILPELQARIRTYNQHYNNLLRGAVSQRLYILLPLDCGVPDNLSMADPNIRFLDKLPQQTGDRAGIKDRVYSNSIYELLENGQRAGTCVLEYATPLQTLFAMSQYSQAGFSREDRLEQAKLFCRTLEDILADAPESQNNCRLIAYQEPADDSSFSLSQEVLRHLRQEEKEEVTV

Row | Structure (SMILES) | DSF ΔTm WT STING [°C]
1 | Nc1ncnc2c1ncn2[C@@H]1O[C@@H]2COP(=O)(O)OC3C(O)[C@@H](COP(=O)(O)OC2C1O)C[C@H]3n1cnc2c(=O)[nH]cnc21 (stereo partly drawn) [Compound 121, (6R,8R,15R,17R)-8-(6-amino-9H-purin-9-yl)-3,9,12,18-tetrahydroxy-17-(6-oxo-6,9-dihydro-1H-purin-9-yl)-2,4,7,11,13-pentaoxa-3λ^5,12λ^5-diphosphatricyclo[13.2.1.0^6,10]octadecane-3,12-dione] | 9.4

same assay, conditions: thermal shift, truncated human WT STING 0.1 mg/ml, 150 μM CDN; read-out: DSF ΔTm WT STING

Row | Structure (SMILES) | ΔTm at 150 µM [°C]
2 | CSc1nc(N)nc2c1ncn2[C@@H]1O[C@@H]2COP(=O)(O)OC3C(O)[C@@H](COP(=O)(O)OC2C1O)C[C@H]3n1cnc2c(=O)[nH]c(N)nc21 (stereo partly drawn) [Compound 112, (6R,8R,15R,17R)-8-[2-amino-6-(methylsulfanyl)-9H-purin-9-yl]-17-(2-amino-6-oxo-6,9-dihydro-1H-purin-9-yl)-3,9,12,18-tetrahydroxy-2,4,7,11,13-pentaoxa-3λ^5,12λ^5-diphosphatricyclo[13.2.1.0^6,10]octadecane-3,12-dione] | 0.6
3 | Cc1cn([C@@H]2O[C@@H]3COP(=O)(O)OC4C(O)[C@@H](COP(=O)(O)OC3C2O)C[C@H]4n2cnc3c(=O)[nH]c(N)nc32)c2ncnc(N)c12 (stereo partly drawn) [Compound 113, (6R,8R,15R,17R)-8-{4-amino-5-methyl-7H-pyrrolo[2,3-d]pyrimidin-7-yl}-17-(2-amino-6-oxo-6,9-dihydro-1H-purin-9-yl)-3,9,12,18-tetrahydroxy-2,4,7,11,13-pentaoxa-3λ^5,12λ^5-diphosphatricyclo[13.2.1.0^6,10]octadecane-3,12-dione] | 6
4 | C#Cc1cn([C@@H]2O[C@@H]3COP(=O)(O)OC4C(O)[C@@H](COP(=O)(O)OC3C2O)C[C@H]4n2cnc3c(=O)[nH]c(N)nc32)c2ncnc(N)c12 (stereo partly drawn) [Compound 114, (6R,8R,15R,17R)-8-{4-amino-5-ethynyl-7H-pyrrolo 2,3-dlpyrimidin-7-yl}-17-(2-amino-6-oxo-6,9-dihydro-1H-purin-9-yl)-3,9,12,18-tetrahydroxy-2,4,7,11,13-pentaoxa-3λ^5,12λ^5-diphosphatricyclo[13.2.1.0^6,10]octadecane-3,12-dione] | 4.4
5 | Nc1nc2c(ncn2[C@@H]2C[C@@H]3COP(=O)(O)OC4C(O)[C@H](n5cnc6c(Cl)ncnc65)O[C@@H]4COP(=O)(O)OC2C3O)c(=O)[nH]1 (stereo partly drawn) [Compound 115, (6R,8R,15R,17R)-17-(2-amino-6-oxo-6,9-dihydro-1H-purin-9-yl)-8-(6-chloro-9H-purin-9-yl)-3,9,12,18-tetrahydroxy-2,4,7,11,13-pentaoxa-3λ^5,12λ^5-diphosphatricyclo[13.2.1.0^6,10]octadecane-3,12-dione] | 6.3
6 | Nc1nc2c(ncn2[C@@H]2C[C@@H]3COP(=O)(O)OC4C(O)[C@H](n5nnc6c(N)ncnc65)O[C@@H]4COP(=O)(O)OC2C3O)c(=O)[nH]1 (stereo partly drawn) [Compound 116, (6R,8R,15R,17R)-8-{7-amino-3H-[1,2,3]triazolo[4,5-d]pyrimidin-3-yl}-17-(2-amino-6-oxo-6,9-dihydro-1H-purin-9-yl)-3,9,12,18-tetrahydroxy-2,4,7,11,13-pentaoxa-3λ^5,12λ^5-diphosphatricyclo[13.2.1.0^6,10]octadecane-3,12-dione] | 0.9
7 | Nc1nc(N)c2ncn([C@@H]3O[C@@H]4COP(=O)(O)OC5C(O)[C@@H](COP(=O)(O)OC4C3F)C[C@H]5n3cnc4c(=O)[nH]c(N)nc43)c2n1 (stereo partly drawn) [Compound 117, (6R,8R,15R,17R)-17-(2-amino-6-oxo-6,9-dihydro-1H-purin-9-yl)-8-(2,6-diamino-9H-purin-9-yl)-9-fluoro-3,12,18-trihydroxy-2,4,7,11,13-pentaoxa-3λ^5,12λ^5-diphosphatricyclo[13.2.1.0^6,10]octadecane-3,12-dione] | 9.4
8 | Nc1nc2c(ncn2[C@@H]2C[C@@H]3COP(=O)(S)OC4C(O)[C@H](n5cnc6c(N)ncnc65)O[C@@H]4COP(=O)(O)OC2C3O)c(=O)[nH]1 (stereo partly drawn) [Compound 118, (6R,8R,15R,17R)-17-(2-amino-6-oxo-6,9-dihydro-1H-purin-9-yl)-8-(6-amino-9H-purin-9-yl)-3,9,18-trihydroxy-12-sulfanyl-2,4,7,11,13-pentaoxa-3λ^5,12λ^5-diphosphatricyclo[13.2.1.0^6,10]octadecane-3,12-dione] | 8.5
9 | Nc1ncc2ncn([C@@H]3O[C@@H]4COP(=O)(O)OC5C(O)[C@@H](COP(=O)(O)OC4C3O)C[C@H]5n3cnc4c(=O)[nH]cnc43)c2n1 (stereo partly drawn) [Compound 119, (6R,8R,15R,17R)-8-(2-amino-9H-purin-9-yl)-3,9,12,18-tetrahydroxy-17-(6-oxo-6,9-dihydro-1H-purin-9-yl)-2,4,7,11,13-pentaoxa-3λ^5,12λ^5-diphosphatricyclo[13.2.1.0^6,10]octadecane-3,12-dione] | 5.2
10 | Nc1ncnc2c1ncn2[C@@H]1O[C@@H]2COP(=O)(O)OC3C(O)[C@@H](COP(=O)(O)OC2C1O)C[C@H]3n1cnc2c(=O)[nH]cnc21 (stereo partly drawn) [Compound 120, (6R,8R,15R,17R)-8-(6-amino-9H-purin-9-yl)-3,9,12,18-tetrahydroxy-17-(6-oxo-6,9-dihydro-1H-purin-9-yl)-2,4,7,11,13-pentaoxa-3λ^5,12λ^5-diphosphatricyclo[13.2.1.0^6,10]octadecane-3,12-dione] | 10.6
11 | Nc1ncnc2c1ccn2[C@@H]1O[C@@H]2COP(=O)(O)OC3C(O)[C@@H](COP(=O)(O)OC2C1O)C[C@H]3n1cnc2c(=O)[nH]cnc21 (stereo partly drawn) [Compound 122, (6R,8R,15R,17R)-8-{4-amino-7H-pyrrolo[2,3-d]pyrimidin-7-yl}-3,9,12,18-tetrahydroxy-17-(6-oxo-6,9-dihydro-1H-purin-9-yl)-2,4,7,11,13-pentaoxa-3λ^5,12λ^5-diphosphatricyclo[13.2.1.0^6,10]octadecane-3,12-dione] | 6.7
12 | Cc1cn([C@@H]2O[C@@H]3COP(=O)(O)OC4C(O)[C@@H](COP(=O)(O)OC3C2O)C[C@H]4n2cnc3c(=O)[nH]cnc32)c2ncnc(N)c12 (stereo partly drawn) [Compound 123, (6R,8R,15R,17R)-8-{4-amino-5-methyl-7H-pyrrolo[2,3-d]pyrimidin-7-yl}-3,9,12,18-tetrahydroxy-17-(6-oxo-6,9-dihydro-1H-purin-9-yl)-2,4,7,11,13-pentaoxa-3λ^5,12λ^5-diphosphatricyclo[13.2.1.0^6,10]octadecane-3,12-dione] | 6.3
13 | Nc1ncnc2c1c(I)cn2[C@@H]1O[C@@H]2COP(=O)(O)OC3C(O)[C@@H](COP(=O)(O)OC2C1O)C[C@H]3n1cnc2c(=O)[nH]cnc21 (stereo partly drawn) [Compound 124, (6R,8R,15R,17R)-8-{4-amino-5-iodo-7H-pyrrolo[2,3-d]pyrimidin-7-yl}-3,9,12,18-tetrahydroxy-17-(6-oxo-6,9-dihydro-1H-purin-9-yl)-2,4,7,11,13-pentaoxa-3λ^5,12λ^5-diphosphatricyclo[13.2.1.0^6,10]octadecane-3,12-dione] | 5.6
